Data on twelve molecules can be found in PubChem BioAssay (NCI).

Each structure is given as a SMILES string. “And” between values parts separate entries of the source, which are not always exact repeats. Identical values can stand only once.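 1) Cells in 96-well plates. 2) Compound, 48 h, 5 concentrations. 3) Linear interpolation between surrounding doses. 4) Unreached endpoint = highest concentration. The concentration for 50% growth inhibition is given as GI50. TGI: concentration producing complete growth inhibition.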

One may read the GI50 as the concentration that inhibits growth by half. A word on the TGI: it is the concentration giving total growth inhibition. A high value points to lower sensitivity of the cells.

What all share (test): DTP human tumour cell line panel, 48 h
Assay [1] deals with KM12 colon.
Assay [2] deals with SW-620 colon.
For assay [3], the system named is UACC-257 melanoma.
For assay [4], the system named is RPMI-8226 leukemia.
Assay [5] relates to NCI-H226 lung.
Assay [6] concerns CCRF-CEM leukemia.
For assay [7], the system named is HT29 colon.
Assay [8] deals with M14 melanoma.
Assay [9] deals with HOP-92 NSCLC.
Assay [10] has as its system UO-31 renal.

For `CCCCCOc1ccc(/C=N/Nc2cc(C)nc3ccc(Br)cc23)cc1`, the GI50 in [1] is 1.74 µM; in assay [2] it was 1.92 µM; in assay [3] it was 1.88 µM; in assay [4], 1.91 µM; in [5] it was 1.85 µM; in assay [6], 1.54 µM. Further, the GI50 in assay [7] is 1.94 µM; in [8] it was 1.88 µM; in assay [9], 1.36 µM; in assay [10] it was 1.57 µM. Also, the TGI stood at 3.19 µM in [1]; 3.63 µM in assay [2]; 3.6 µM in assay [3]; 4.17 µM in assay [4]; 4.32 µM in assay [5]; 3.51 µM in assay [6]. In addition, the TGI in [7] worked out at 4.24 µM; in assay [8], 3.53 µM; in [9], 2.88 µM; in assay [10] it was 3 µM.

For the molecule `CC[C@H]1CN2CCc3cc(OC)c(OC)cc3[C@@H]2C[C@@H]1C[C@H]1NCCc2c1[nH]c1ccc(O)cc21`, the GI50 in [1] is 0.0507 µM and 0.0994 µM; in assay [2] it was 0.0286 µM and 0.0339 µM; in assay [3] it was 0.223 µM and 0.212 µM; in assay [4] it was 0.0272 µM and 0.0305 µM; in [5] it was 0.0282 µM and 0.0409 µM; in [6] it was 0.0129 µM and 0.0207 µM. In addition, the GI50 in assay [7] is 0.0271 µM and 0.0332 µM; in assay [8] it was 0.0365 µM and 0.0275 µM; in assay [9] it was 0.0183 µM and 0.0337 µM; in [10], 0.251 µM and 1.2 µM. Further, the TGI in assay [1] is 0.283 µM and 1.37 µM and 0.519 µM; in assay [3] it was 0.666 µM and 0.69 µM and 0.643 µM; in [5] it was 0.0778 µM and 0.261 µM and 0.0326 µM; in [6], 0.239 µM and 0.054 µM and 0.326 µM; in [7], 0.0862 µM and 0.341 µM and 0.11 µM; in [8], 0.162 µM and 0.0729 µM and 0.0478 µM. The TGI in [10] was 0.772 µM and 4.5 µM and 1.9 µM.

For the molecule `[N-]=[N+]=Nc1cc(=O)[nH]nc1-c1ccccc1`, the TGI in [1], in assay [2], in assay [3], in assay [4], in assay [5] and in assay [6] was greater than 100 µM each time. The total growth inhibition concentration (TGI) in assay [7], in assay [8], in assay [9] and in [10] was greater than 100 µM in each case.

As for `CC1=NC(=Cc2cc(Br)cc(Br)c2)C(=O)N1n1c(-c2ccccc2)nc2ccccc2c1=O`, the TGI in assay [1], in assay [2], in assay [3], in [4], in [5] and in assay [6] was greater than 100 µM throughout. The TGI in assay [7], in assay [8], in assay [9] and in assay [10] was greater than 100 µM throughout.

For `C=C1C(=O)O[C@H]2[C@H]1CC/C(COC(=O)/C=C\C(=O)NCc1ccc(Cn3c(=O)sn(CCCC)c3=O)cc1)=C\CC[C@@]1(C)O[C@@H]21`, the GI50 in [1] was 1.67 µM; in [2], 0.201 µM; in assay [3], 1.38 µM; in assay [4], 0.274 µM; in [5], 1.58 µM; in assay [6], 0.275 µM. Also, the GI50 in assay [7] is 0.472 µM; in assay [8] it was 0.678 µM; in [9], 0.655 µM; in assay [10], 0.387 µM. Moreover, the TGI in assay [1] came out at 3.8 µM; in [2], 0.443 µM; in assay [3] it was 2.93 µM; in assay [4] it was 0.949 µM; in assay [5] it was 3.39 µM; in assay [6], 1.63 µM. Also, the TGI worked out at 2.07 µM in assay [7], 2.06 µM in assay [8], 2.04 µM in assay [9] and 1.61 µM in [10].

For the molecule `N#CC(C(=O)C(=O)Nc1ccc(Cl)cc1)c1ccccc1` (stereo not drawn), the TGI in assay [1], in assay [2], in [3], in [4], in assay [5] and in assay [6] was greater than 100 µM each time. Besides, the TGI in [7], in assay [8], in [9] and in [10] was greater than 100 µM each time.

Take `COc1cc(C=O)c(-c2cc(OC)c(OC)cc2C=O)cc1OC`: the total growth inhibition concentration (TGI) in assay [1], in assay [2], in [3], in assay [4], in [5] and in [6] was greater than 100 µM in each case. For the same molecule, the TGI in assay [7], in assay [8], in [9] and in assay [10] was greater than 100 µM each time.

With `CC(C)N(CCn1c2c3ccccc3ccc2c2oc(=O)c3ccccc3c21)C(C)C`, the TGI in assay [1], in assay [2], in assay [3], in assay [4], in [5] and in [6] was greater than 100 µM in each case. Also, the TGI in [7] was greater than 100 µM; in assay [8], greater than 100 µM; in assay [9], greater than 92.3 µM; in assay [10], greater than 100 µM.

For `CN1C(=O)/C(=C/c2c(Cl)n(C)c3ccccc23)c2ccccc21`, the GI50 in assay [1] is 3.34 µM and 1.31 µM; in assay [2], 5.07 µM; in [3], 4.53 µM; in assay [4] it was 1.53 µM; in assay [5] it was 5.05 µM; in assay [7] it was 4.37 µM and 5.57 µM. In addition, the GI50 in assay [8] is 2.81 µM and 1.32 µM; in assay [9], 1.8 µM; in assay [10] it was 8 µM and 1.24 µM. Further, the TGI in [1] was 3.49 µM; in assay [4], 3.94 µM; in assay [6], greater than 100 µM; in [7], 17.8 µM; in [8], 2.8 µM; in assay [9], 3.34 µM. The same molecule showed a TGI in assay [10] of 2.75 µM.

Regarding `N#CC1=C(N)Oc2cc(O)ccc2C1c1cccc2ccccc12` (stereo not drawn), the GI50 is 6.68 µM in assay [1]; 3.95 µM in assay [2]; 14.1 µM in assay [3]; 10.9 µM in [4]; 24.2 µM in assay [5]; 7 µM in assay [6]. Besides, the GI50 in [7] is 8.89 µM; in assay [8], 5.72 µM; in assay [9], 3.78 µM; in assay [10], 12.3 µM. In addition, the TGI in assay [1] is greater than 100 µM; in [2], greater than 100 µM; in assay [3], 30.1 µM; in assay [4] it was 41.7 µM; in [5] it was 82.3 µM; in [6], 36.9 µM. The TGI in [7] came to 27 µM; in assay [8], 21.6 µM; in [9] it was 23.7 µM; in [10] it was 25.8 µM.

With `C/C(CC(=O)Nc1cccc(Cl)c1C)=N\NC(=O)c1ccncc1`, the TGI in [1], in assay [2], in [3], in [4], in assay [5] and in [6] was greater than 100 µM throughout. In addition, the TGI in assay [7], in assay [8], in assay [9] and in [10] was greater than 100 µM each time.

Turning to `Cc1cc(C)nc(NS(=O)(=O)c2ccc(NC(=O)c3cccc4c(Nc5ccc(S(N)(=O)=O)cc5)c5ccccc5nc34)cc2)n1`, the TGI in assay [1] was 47.3 µM; in [2], greater than 100 µM; in [3] it was 72.4 µM; in assay [4] it was greater than 100 µM; in [5], greater than 100 µM; in assay [6] it was greater than 25.1 µM. Besides, the TGI was 97.1 µM in assay [7], greater than 100 µM in assay [8], 61.1 µM in assay [9] and greater than 100 µM in assay [10].
